This note sets out measurements from ChEMBL document CHEMBL1133591, “Potent derivatives of glucagon-like peptide-1 with pharmacokinetic properties suitable for once daily administration” (J Med Chem, 2000).

Each structure is given as a SMILES string. Numbered stars: 1 amine (or outer) side, 2 acyl side, 3 side chain; on linkers, the order of the positions; unused ones are H or OH. Square brackets hold non-standard residues; d marks the D form. Side chains are listed from the residue outwards. Peptide text beside a SMILES is read from it. * marks the point of attachment. ξ: configuration not given here. Desaminohistidyl = O=C(CCc1c[nH]cn1)*; X2 = CCCCCCCCCCCCCC(CCCCC(=O)*)C(=O)O; ξγGlu = O=C(O)C(CCC(=O)[*:2])N[*:1]; Stearoyl = CCCCCCCCCCCCCCCCCC(=O)*; Palmitoyl = CCCCCCCCCCCCCCCC(=O)*; Octanoyl = CCCCCCCC(=O)*; ξK = NCCCCC(N)C(=O)O

The target of this assay is Glucagon-like peptide 1 receptor (Homo sapiens, UniProt P43220). Briefly: Potency measured using recombinant human GLP-1 receptor expressed in Baby Hamster Kidney (BHK)cells. The format is cell-based.
Chain of Glucagon-like peptide 1 receptor (P43220 whole entry): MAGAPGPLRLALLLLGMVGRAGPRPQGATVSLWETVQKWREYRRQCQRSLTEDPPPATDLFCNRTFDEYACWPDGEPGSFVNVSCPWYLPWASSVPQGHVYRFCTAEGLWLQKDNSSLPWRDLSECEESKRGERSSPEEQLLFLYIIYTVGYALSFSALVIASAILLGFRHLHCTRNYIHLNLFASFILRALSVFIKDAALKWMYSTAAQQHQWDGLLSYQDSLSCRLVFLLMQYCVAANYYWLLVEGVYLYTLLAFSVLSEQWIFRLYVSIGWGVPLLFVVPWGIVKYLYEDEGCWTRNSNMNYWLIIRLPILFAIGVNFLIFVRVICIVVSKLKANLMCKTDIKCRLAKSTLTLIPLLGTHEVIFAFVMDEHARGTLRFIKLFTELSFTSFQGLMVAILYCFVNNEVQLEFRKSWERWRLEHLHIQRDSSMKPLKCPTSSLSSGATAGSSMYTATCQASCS

On to `CCCCCCCCCCCCCCCC(=O)NC(CCC(=O)NCCCC[C@H](NC(=O)[C@@H](NC(=O)[C@H](CC(C)C)NC(=O)[C@H](Cc1c[nH]c2ccccc12)NC(=O)[C@H](C)NC(=O)[C@@H](NC(=O)[C@H](Cc1ccccc1)NC(=O)[C@H](CCC(=O)O)NC(=O)[C@H](CCCN=C(N)N)NC(=O)[C@H](C)NC(=O)[C@H](C)NC(=O)[C@H](CCC(N)=O)NC(=O)CNC(=O)[C@H](CCC(=O)O)NC(=O)[C@H](CC(C)C)NC(=O)[C@H](Cc1ccc(O)cc1)NC(=O)[C@H](CO)NC(=O)[C@H](CO)NC(=O)[C@@H](NC(=O)[C@H](CC(=O)O)NC(=O)[C@H](CO)NC(=O)[C@@H](NC(=O)[C@H](Cc1ccccc1)NC(=O)[C@@H](NC(=O)CNC(=O)[C@H](CCC(=O)O)NC(=O)[C@H](C)NC(=O)CCc1c[nH]cn1)[C@@H](C)O)[C@@H](C)O)C(C)C)[C@@H](C)CC)C(C)C)C(=O)NCC(=O)N[C@@H](CCCN=C(N)N)C(=O)NCC(=O)O)C(=O)O` (stereo not given in full) (Desaminohistidyl-AEGTFTSDVSSYLEGQAAREFIAWLVK([ξγGlu-Palmitoyl])GRG-OH), for which the concentration giving a half-maximal response (EC50) was 2.36 nM. Then `CCCCCCCCCCCCCCCC(=O)NC(CCC(=O)NCCCCC(NC(=O)[C@H](CCC(=O)O)NC(=O)[C@H](CCCN=C(N)N)NC(=O)CNC(=O)[C@H](CCCN=C(N)N)NC(=O)[C@@H](NC(=O)[C@H](CC(C)C)NC(=O)[C@H](Cc1c[nH]c2ccccc12)NC(=O)[C@H](C)NC(=O)[C@@H](NC(=O)[C@H](Cc1ccccc1)NC(=O)[C@H](CCC(=O)O)NC(=O)[C@H](CCCN=C(N)N)NC(=O)[C@H](C)NC(=O)[C@H](C)NC(=O)[C@H](CCC(N)=O)NC(=O)CNC(=O)[C@H](CCC(=O)O)NC(=O)[C@H](CC(C)C)NC(=O)[C@H](Cc1ccc(O)cc1)NC(=O)[C@H](CO)NC(=O)[C@H](CO)NC(=O)[C@@H](NC(=O)[C@H](CC(=O)O)NC(=O)[C@H](CO)NC(=O)[C@@H](NC(=O)[C@H](Cc1ccccc1)NC(=O)[C@@H](NC(=O)CNC(=O)[C@H](CCC(=O)O)NC(=O)[C@H](C)NC(=O)[C@@H](N)Cc1c[nH]cn1)[C@@H](C)O)[C@@H](C)O)C(C)C)[C@@H](C)CC)C(C)C)C(=O)O)C(=O)O` (stereo not given in full), with 0.0272 nM. Then `CCCCCCCC(=O)NC(CCC(=O)NCCCC[C@H](NC(=O)[C@@H](NC(=O)[C@H](CC(C)C)NC(=O)[C@H](Cc1c[nH]c2ccccc12)NC(=O)[C@H](C)NC(=O)[C@@H](NC(=O)[C@H](Cc1ccccc1)NC(=O)[C@H](CCC(=O)O)NC(=O)[C@H](CCCN=C(N)N)NC(=O)[C@H](C)NC(=O)[C@H](C)NC(=O)[C@H](CCC(N)=O)NC(=O)CNC(=O)[C@H](CCC(=O)O)NC(=O)[C@H](CC(C)C)NC(=O)[C@H](Cc1ccc(O)cc1)NC(=O)[C@H](CO)NC(=O)[C@H](CO)NC(=O)[C@@H](NC(=O)[C@H](CC(=O)O)NC(=O)[C@H](CO)NC(=O)[C@@H](NC(=O)[C@H](Cc1ccccc1)NC(=O)[C@@H](NC(=O)CNC(=O)[C@H](CCC(=O)O)NC(=O)[C@H](C)NC(=O)CCc1c[nH]cn1)[C@@H](C)O)[C@@H](C)O)C(C)C)[C@@H](C)CC)C(C)C)C(=O)NCC(=O)N[C@@H](CCCN=C(N)N)C(=O)NCC(=O)O)C(=O)O` (stereo not given in full) (Desaminohistidyl-AEGTFTSDVSSYLEGQAAREFIAWLVK([ξγGlu-Octanoyl])GRG-OH), with 0.169 nM; and `CCCCCCCCCCCCCC(CCCCC(=O)NCCCC[C@H](NC(=O)CNC(=O)[C@H](CCCN=C(N)N)NC(=O)[C@@H](NC(=O)[C@H](CC(C)C)NC(=O)[C@H](Cc1c[nH]c2ccccc12)NC(=O)[C@H](C)NC(=O)[C@@H](NC(=O)[C@H](Cc1ccccc1)NC(=O)[C@H](CCC(=O)O)NC(=O)[C@H](CCCN=C(N)N)NC(=O)[C@H](C)NC(=O)[C@H](C)NC(=O)[C@H](CCC(N)=O)NC(=O)CNC(=O)[C@H](CCC(=O)O)NC(=O)[C@H](CC(C)C)NC(=O)[C@H](Cc1ccc(O)cc1)NC(=O)[C@H](CO)NC(=O)[C@H](CO)NC(=O)[C@@H](NC(=O)[C@H](CC(=O)O)NC(=O)[C@H](CO)NC(=O)[C@@H](NC(=O)[C@H](Cc1ccccc1)NC(=O)[C@@H](NC(=O)CNC(=O)[C@H](CCC(=O)O)NC(=O)[C@H](C)NC(=O)[C@@H](N)Cc1c[nH]cn1)[C@@H](C)O)[C@@H](C)O)C(C)C)[C@@H](C)CC)C(C)C)C(=O)NCC(=O)O)C(=O)O` (stereo not given in full) (H-HAEGTFTSDVSSYLEGQAAREFIAWLVRGK(X2)G-OH), with 0.21 nM.

With `CCCCCCCCCC(CCCCC(=O)NCCCCC(NC(=O)CNC(=O)[C@H](CCCN=C(N)N)NC(=O)CNC(=O)[C@H](CCCN=C(N)N)NC(=O)[C@@H](NC(=O)[C@H](CC(C)C)NC(=O)[C@H](Cc1c[nH]c2ccccc12)NC(=O)[C@H](C)NC(=O)[C@@H](NC(=O)[C@H](Cc1ccccc1)NC(=O)[C@H](CCC(=O)O)NC(=O)[C@H](CCCN=C(N)N)NC(=O)[C@H](C)NC(=O)[C@H](C)NC(=O)[C@H](CCC(N)=O)NC(=O)CNC(=O)[C@H](CCC(=O)O)NC(=O)[C@H](CC(C)C)NC(=O)[C@H](Cc1ccc(O)cc1)NC(=O)[C@H](CO)NC(=O)[C@H](CO)NC(=O)[C@@H](NC(=O)[C@H](CC(=O)O)NC(=O)[C@H](CO)NC(=O)[C@@H](NC(=O)[C@H](Cc1ccccc1)NC(=O)[C@@H](NC(=O)CNC(=O)[C@H](CCC(=O)O)NC(=O)[C@H](C)NC(=O)[C@@H](N)Cc1c[nH]cn1)[C@@H](C)O)[C@@H](C)O)C(C)C)[C@@H](C)CC)C(C)C)C(=O)O)C(=O)O` (stereo not given in full), the EC50 was determined as 0.0056 nM. Then `CCCCCCCCCCCCCCCC(=O)NC(CCC(=O)NCCCCC(NC(=O)CNC(=O)[C@H](CCCN=C(N)N)NC(=O)CNC(=O)[C@H](CCCN=C(N)N)NC(=O)[C@@H](NC(=O)[C@H](CC(C)C)NC(=O)[C@H](Cc1c[nH]c2ccccc12)NC(=O)[C@H](C)NC(=O)[C@@H](NC(=O)[C@H](Cc1ccccc1)NC(=O)[C@H](CCC(=O)O)NC(=O)[C@H](CCCN=C(N)N)NC(=O)[C@H](C)NC(=O)[C@H](C)NC(=O)[C@H](CCC(N)=O)NC(=O)CNC(=O)[C@H](CCC(=O)O)NC(=O)[C@H](CC(C)C)NC(=O)[C@H](Cc1ccc(O)cc1)NC(=O)[C@H](CO)NC(=O)[C@H](CO)NC(=O)[C@@H](NC(=O)[C@H](CC(=O)O)NC(=O)[C@H](CO)NC(=O)[C@@H](NC(=O)[C@H](Cc1ccccc1)NC(=O)[C@@H](NC(=O)CNC(=O)[C@H](CCC(=O)O)NC(=O)CNC(=O)[C@@H](N)Cc1c[nH]cn1)[C@@H](C)O)[C@@H](C)O)C(C)C)[C@@H](C)CC)C(C)C)C(=O)O)C(=O)O` (stereo not given in full) (H-HGEGTFTSDVSSYLEGQAAREFIAWLVRGRG[ξK]([ξγGlu-Palmitoyl])-OH), with 0.328 nM; and `CCCCCCCCCCCCCCCCCC(=O)NC(CCC(=O)NCCCC[C@H](NC(=O)CNC(=O)[C@H](CCCN=C(N)N)NC(=O)[C@@H](NC(=O)[C@H](CC(C)C)NC(=O)[C@H](Cc1c[nH]c2ccccc12)NC(=O)[C@H](C)NC(=O)[C@@H](NC(=O)[C@H](Cc1ccccc1)NC(=O)[C@H](CCC(=O)O)NC(=O)[C@H](CCCN=C(N)N)NC(=O)[C@H](C)NC(=O)[C@H](C)NC(=O)[C@H](CCC(N)=O)NC(=O)CNC(=O)[C@H](CCC(=O)O)NC(=O)[C@H](CC(C)C)NC(=O)[C@H](Cc1ccc(O)cc1)NC(=O)[C@H](CO)NC(=O)[C@H](CO)NC(=O)[C@@H](NC(=O)[C@H](CC(=O)O)NC(=O)[C@H](CO)NC(=O)[C@@H](NC(=O)[C@H](Cc1ccccc1)NC(=O)[C@@H](NC(=O)CNC(=O)[C@H](CCC(=O)O)NC(=O)[C@H](C)NC(=O)[C@@H](N)Cc1c[nH]cn1)[C@@H](C)O)[C@@H](C)O)C(C)C)[C@@H](C)CC)C(C)C)C(=O)NCC(=O)O)C(=O)O` (stereo not given in full) (H-HAEGTFTSDVSSYLEGQAAREFIAWLVRGK([ξγGlu-Stearoyl])G-OH), with 0.116 nM; and `CCCCCCCCCCCCCCCC(=O)NC(CCC(=O)NCCCC[C@H](NC(=O)[C@H](CCCN=C(N)N)NC(=O)[C@H](C)NC(=O)[C@H](C)NC(=O)[C@H](CCC(N)=O)NC(=O)CNC(=O)[C@H](CCC(=O)O)NC(=O)[C@H](CC(C)C)NC(=O)[C@H](Cc1ccc(O)cc1)NC(=O)[C@H](CO)NC(=O)[C@H](CO)NC(=O)[C@@H](NC(=O)[C@H](CC(=O)O)NC(=O)[C@H](CO)NC(=O)[C@@H](NC(=O)[C@H](Cc1ccccc1)NC(=O)[C@@H](NC(=O)CNC(=O)[C@H](CCC(=O)O)NC(=O)[C@H](C)NC(=O)[C@@H](N)Cc1c[nH]cn1)[C@@H](C)O)[C@@H](C)O)C(C)C)C(=O)N[C@@H](Cc1ccccc1)C(=O)N[C@H](C(=O)N[C@@H](C)C(=O)N[C@@H](Cc1c[nH]c2ccccc12)C(=O)N[C@@H](CC(C)C)C(=O)N[C@H](C(=O)N[C@@H](CCCN=C(N)N)C(=O)NCC(=O)N[C@@H](CCCN=C(N)N)C(=O)NCC(=O)O)C(C)C)[C@@H](C)CC)C(=O)O` (stereo not given in full) (H-HAEGTFTSDVSSYLEGQAARK([ξγGlu-Palmitoyl])FIAWLVRGRG-OH), with 0.0363 nM. As for `CCCCCCCC(=O)NCCCC[C@H](NC(=O)[C@@H](NC(=O)[C@H](CC(C)C)NC(=O)[C@H](Cc1c[nH]c2ccccc12)NC(=O)[C@H](C)NC(=O)[C@@H](NC(=O)[C@H](Cc1ccccc1)NC(=O)[C@H](CCC(=O)O)NC(=O)[C@H](CCCN=C(N)N)NC(=O)[C@H](C)NC(=O)[C@H](C)NC(=O)[C@H](CCC(N)=O)NC(=O)CNC(=O)[C@H](CCC(=O)O)NC(=O)[C@H](CC(C)C)NC(=O)[C@H](Cc1ccc(O)cc1)NC(=O)[C@H](CO)NC(=O)[C@H](CO)NC(=O)[C@@H](NC(=O)[C@H](CC(=O)O)NC(=O)[C@H](CO)NC(=O)[C@@H](NC(=O)[C@H](Cc1ccccc1)NC(=O)[C@@H](NC(=O)CNC(=O)[C@H](CCC(=O)O)NC(=O)[C@H](C)NC(=O)CCc1c[nH]cn1)[C@@H](C)O)[C@@H](C)O)C(C)C)[C@@H](C)CC)C(C)C)C(=O)NCC(=O)N[C@@H](CCCN=C(N)N)C(=O)NCC(=O)O` (Desaminohistidyl-AEGTFTSDVSSYLEGQAAREFIAWLVK(Octanoyl)GRG-OH), the EC50 amounted to 0.236 nM. Consider `CCCCCCCCCCCCCCCCCC(=O)NC(CCC(=O)NCCCCC(NC(=O)[C@H](CCC(=O)O)NC(=O)[C@H](CCCN=C(N)N)NC(=O)CNC(=O)[C@H](CCCN=C(N)N)NC(=O)[C@@H](NC(=O)[C@H](CC(C)C)NC(=O)[C@H](Cc1c[nH]c2ccccc12)NC(=O)[C@H](C)NC(=O)[C@@H](NC(=O)[C@H](Cc1ccccc1)NC(=O)[C@H](CCC(=O)O)NC(=O)[C@H](CCCN=C(N)N)NC(=O)[C@H](C)NC(=O)[C@H](C)NC(=O)[C@H](CCC(N)=O)NC(=O)CNC(=O)[C@H](CCC(=O)O)NC(=O)[C@H](CC(C)C)NC(=O)[C@H](Cc1ccc(O)cc1)NC(=O)[C@H](CO)NC(=O)[C@H](CO)NC(=O)[C@@H](NC(=O)[C@H](CC(=O)O)NC(=O)[C@H](CO)NC(=O)[C@@H](NC(=O)[C@H](Cc1ccccc1)NC(=O)[C@@H](NC(=O)CNC(=O)[C@H](CCC(=O)O)NC(=O)CNC(=O)[C@@H](N)Cc1c[nH]cn1)[C@@H](C)O)[C@@H](C)O)C(C)C)[C@@H](C)CC)C(C)C)C(=O)O)C(=O)O` (stereo not given in full) (H-HGEGTFTSDVSSYLEGQAAREFIAWLVRGRE[ξK]([ξγGlu-Stearoyl])-OH), for which the EC50 was determined as 0.213 nM.

One may read the EC50 as the concentration that produces a half-maximal response.
